{"source": "patent US8945626B2", "about": "“Preparation of pharmaceutical compositions” (priority 2006, dated 2015)", "origin": "cited, not measured here"}
{"smiles": "CC(=O)Nc1ccc(O)cc1", "note": "[Paracetamol, 4-Acetamidophenol]", "values": [{"measurement": "solubility in cold water", "result": "very slightly soluble"}]}
